Test results: patent US7176219B2, “Salts of quinuclidine derivative” (priority 2005, dated 2007)
Read-outs that look alike come from different tables or passages of the source.

How the values were obtained:
[1] = Evaluation of hygroscopicity (dynamic steam adsorption, weight change); type: physicochemical; settings: 25° C., within the range 5–95% relative humidity
Protocol: A sample (about 5 mg) was placed in a purpose-made quartz holder, and the sample weight at the respective humidity was continuously measured and recorded in the following conditions. The apparatus including data processing was operated according to the method and procedure directed in each device. (Apparatus: dynamic steam adsorption measuring apparatus DVS Advantage, made by SMS)

[2] = Evaluation of stability (1): forced degradation test, impurities by LC; settings: for Change from Impurity Amt. before Storage (%), Condition 3 / Change from Impurity Amt. before Storage (%), Condition 2: 25° C., 5 days; for Change from Impurity Amt. before Storage (%), Condition 3: NUV (near ultraviolet ray) irradiated; for Change from Impurity Amt. before Storage (%), Condition 3 / Change from Impurity Amt. before Storage (%), Condition 1: tightly closed; for Change from Impurity Amt. before Storage (%), Condition 2: relative humidity 93%, open; for Change from Impurity Amt. before Storage (%), Condition 1: 120° C., 24 hours
Protocol: A sample after storage was dissolved in 1 mL of MeOH and used as a sample solution. The sample solution was diluted 100 times with MeOH and used as a standard solution. Impurities contained in the sample solution was quantitatively analyzed using the standard solution. In this determination, the apparatus including data processing was operated according to the method and procedure directed in each device. (Apparatus: LC-MSD 1100 series, made by Agilent)

muscarinic M3 receptors = molecular target: T1, muscarinic M3 receptors (Cavia porcellus, UniProt H0W1Z3); assay: Functional affinity estimate for muscarinic M3 receptors in bladders (carbachol-induced intracellular Ca2+ change in bladder smooth muscle cells); type: cell-based, guinea pig; settings: for IC50: inhibition of carbachol-induced Ca2+ increase, guinea pig bladder smooth muscle cells, Fura2; for Ki: IC50 converted by Cheng-Prusoff equation based on EC50 of carbachol
T1 construct: Smooth muscle cells were isolated from guinea pig bladders; from tissue; host or cells: smooth muscle cells freshly isolated from guinea pig bladder
T1 sequence (H0W1Z3 1-590): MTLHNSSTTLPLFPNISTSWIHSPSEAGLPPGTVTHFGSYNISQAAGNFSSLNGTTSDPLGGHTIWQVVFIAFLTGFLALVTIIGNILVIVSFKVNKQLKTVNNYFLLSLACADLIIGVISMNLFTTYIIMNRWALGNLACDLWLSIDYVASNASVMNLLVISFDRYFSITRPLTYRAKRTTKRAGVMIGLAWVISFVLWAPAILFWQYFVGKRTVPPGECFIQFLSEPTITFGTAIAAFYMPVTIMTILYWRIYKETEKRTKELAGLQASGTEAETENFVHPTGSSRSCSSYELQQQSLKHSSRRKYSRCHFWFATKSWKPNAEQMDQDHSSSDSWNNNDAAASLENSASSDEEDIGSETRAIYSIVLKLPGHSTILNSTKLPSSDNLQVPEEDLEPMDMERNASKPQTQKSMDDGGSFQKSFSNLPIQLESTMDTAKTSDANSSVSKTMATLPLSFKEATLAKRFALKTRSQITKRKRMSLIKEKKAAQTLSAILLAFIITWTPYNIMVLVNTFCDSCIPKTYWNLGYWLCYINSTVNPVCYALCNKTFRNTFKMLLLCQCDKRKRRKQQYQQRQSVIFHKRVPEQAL
Protocol: Below, the method is described in brief.
Smooth muscle cells were isolated from guinea pig bladders from which the […] had been removed, loaded with a calcium-sensitive fluorescent dye Fura2 and suspended in phenol red-free Hanks' buffer solution supplemented with 20 mM HEPES (pH 7.4) and 0.1% bovine serum albumin. An aliquot of cell suspension (490 μL) was continuously stirred, kept at 28° C. and monitored for the ratio of fluorescence (500 nm) at 340 nm excitation to that at 380 nm excitation. To each aliquot, 5 μL of test compound and carbachol solutions were serially added with a 2 minute interval, and the peak increase in the ratio over the level just before stimulation was used in data analysis.

[3] = tested on: carbachol-evoked bladder contraction; assay: Inhibitory effects on carbachol-evoked bladder contraction in anesthetized mice; type: in vivo; settings: anesthetized female mice, i.v., carbachol 10 μg/kg, intravesical pressure
Protocol: The method for determination of inhibitory effects of test compounds on bladder contraction is described as follows.
Female mice, weighing 30 to 35 g, were anesthetized with a sub-lethal dose (75 mg/kg, i.v.) of sodium pentobarbital and placed supine on a heating pad to maintain the body temperature. A polyethylene catheter (PE10) was cannulated to the bladder via the urethra and secured by purse-string suture at the external urethral opening. Another catheter was inserted into the femoral vein for injections of drug solutions at a […]. The bladder catheter was connected to a pressure transducer through a three-way stopcock valve. The bladder was emptied by drainage of urine through the catheter, and then distended with about 100 μL of physiological saline, and the intravesical pressure was measured.
After intravesical pressure stabilization, the muscarinic agonist carbachol (10 μg/kg) was administered repeatedly with an interval of 15 minutes or longer. By this means, bladder contractions occurred in a reproducible manner over 2 hours without deterioration of physical conditions. After three responses to carbachol were obtained, a test compound injection was followed by carbachol administration 10 minutes later and this procedure was repeated with increasing doses of the test compound. In four or five mice per test compound, the percent inhibition of means of prior drug responses was obtained and the dose of test compound required for 50% inhibition (ID50) was estimated by the linear regression analysis. Mice showing rhythmic bladder constriction were not used for the data analysis.

## O=C(O[C@H]1CN2CCC1CC2)N1CCc2ccccc2[C@H]1c1ccccc1 [Example 2, (−)-(3R)-quinuclidin-3-yl(1R)-1-phenyl-1,2,3,4-tetrahydroisoquinoline-2-carboxylate (+)-(2S,3S)-di-O-benzoyltartrate]
[1]
  Weight Change (%): <1%
[2]
  Change from Impurity Amt. before Storage (%), Condition 3: 0.0%
  Change from Impurity Amt. before Storage (%), Condition 2: 0.1%
  Change from Impurity Amt. before Storage (%), Condition 1: 0.2%
  Impurities before Storage (%): 0.0%
Muscarinic M3 receptors; IC50 (ng/mL)
  IC50: 8.83 nM
Muscarinic M3 receptors; Ki (nM)
  Ki: 0.62 ± 0.16 nM

## O=C(O[C@H]1CN2CCC1CC2)N1CCc2ccccc2[C@H]1c1ccccc1 [Example 3, (−)-(3R)-quinuclidin-3-yl(1R)-1-phenyl-1,2,3,4-tetrahydroisoquinoline-2-carboxylate (+)-(2S,3S)-di-O-(4-methylbenzoyl)tartrate]
[1]
  Weight Change (%): <1%
[2]
  Change from Impurity Amt. before Storage (%), Condition 3: 0.0%
  Change from Impurity Amt. before Storage (%), Condition 2: 0.1%
  Change from Impurity Amt. before Storage (%), Condition 1: 2.3%
  Impurities before Storage (%): 0.0%
Muscarinic M3 receptors; IC50 (ng/mL)
  IC50: 10.5 nM
Muscarinic M3 receptors; Ki (nM)
  Ki: 0.69 ± 0.19 nM

## O=C(O[C@H]1CN2CCC1CC2)N1CCc2ccccc2[C@H]1c1ccccc1.O=S(=O)(O)c1ccccc1 [Example 5, (−)-(3R)-quinuclidin-3-yl(1R)-1-phenyl-1,2,3,4-tetrahydroisoquinoline-2-carboxylate benzenesulfonate]
[1]
  Weight Change (%): <1%
[2]; benzenesulfonate
  Change from Impurity Amt. before Storage (%), Condition 3: −0.1%
  Change from Impurity Amt. before Storage (%), Condition 2: 0.1%
  Change from Impurity Amt. before Storage (%), Condition 1: 0.3%
  Impurities before Storage (%): 1.6%
Muscarinic M3 receptors; IC50 (ng/mL)
  IC50: 3.46 nM
Muscarinic M3 receptors; Ki (nM)
  Ki: 0.47 ± 0.12 nM
[3]
  ID50 (dose required for 50% inhibition of bladder contraction): 0.059 mg/kg

## O=C(O[C@H]1CN2CCC1CC2)N1CCc2ccccc2[C@H]1c1ccccc1.O=S(=O)(O)c1ccccc1 [Example 5-1, (−)-(3R)-quinuclidin-3-yl(1R)-1-phenyl-1,2,3,4-tetrahydroisoquinoline-2-carboxylate benzenesulfonate]
[1]
  Weight Change (%): <1%
[2]; benzenesulfonate
  Change from Impurity Amt. before Storage (%), Condition 3: −0.2%
  Change from Impurity Amt. before Storage (%), Condition 2: 0.0%
  Change from Impurity Amt. before Storage (%), Condition 1: −0.1%
  Impurities before Storage (%): 1.8%

## Br.O=C(O[C@H]1CN2CCC1CC2)N1CCc2ccccc2[C@H]1c1ccccc1 [Example 7, (−)-(3R)-quinuclidin-3-yl(1R)-1-phenyl-1,2,3,4-tetrahydroisoquinoline-2-carboxylate hydrobromide]
[1]
  Weight Change (%): <4%
[2]
  Change from Impurity Amt. before Storage (%), Condition 3: 0.3%
  Change from Impurity Amt. before Storage (%), Condition 2: 0.2%
  Change from Impurity Amt. before Storage (%), Condition 1: −0.2%
  Impurities before Storage (%): 0.5%
Muscarinic M3 receptors; IC50 (ng/mL)
  IC50: 4.06 nM
Muscarinic M3 receptors; Ki (nM)
  Ki: 0.66 ± 0.28 nM
[3]
  ID50 (dose required for 50% inhibition of bladder contraction): 0.050 mg/kg

## Cc1ccc(S(=O)(=O)O)cc1.O=C(O[C@H]1CN2CCC1CC2)N1CCc2ccccc2[C@H]1c1ccccc1 [Example 11, (−)-(3R)-quinuclidin-3-yl(1R)-1-phenyl-1,2,3,4-tetrahydroisoquinoline-2-carboxylate p-toluenesulfonate]
[1]
  Weight Change (%): <6%
[2]
  Change from Impurity Amt. before Storage (%), Condition 3: 0.0%
  Change from Impurity Amt. before Storage (%), Condition 2: 0.1%
  Change from Impurity Amt. before Storage (%), Condition 1: −0.1%
  Impurities before Storage (%): 0.5%
Muscarinic M3 receptors; IC50 (ng/mL)
  IC50: 4.11 nM
Muscarinic M3 receptors; Ki (nM)
  Ki: 0.52 ± 0.13 nM

## CCS(=O)(=O)O.O=C(O[C@H]1CN2CCC1CC2)N1CCc2ccccc2[C@H]1c1ccccc1 [Example 12, (−)-(3R)-quinuclidin-3-yl(1R)-1-phenyl-1,2,3,4-tetrahydroisoquinoline-2-carboxylate ethanesulfonate]
[1]
  Weight Change (%): <5%
[2]
  Change from Impurity Amt. before Storage (%), Condition 3: −0.1%
  Change from Impurity Amt. before Storage (%), Condition 2: −0.1%
  Change from Impurity Amt. before Storage (%), Condition 1: −0.2%
  Impurities before Storage (%): 1.4%
Muscarinic M3 receptors; IC50 (ng/mL)
  IC50: 4.02 nM
Muscarinic M3 receptors; Ki (nM)
  Ki: 0.54 ± 0.055 nM

## CS(=O)(=O)O.O=C(O[C@H]1CN2CCC1CC2)N1CCc2ccccc2[C@H]1c1ccccc1 [Example 13, (−)-(3R)-quinuclidin-3-yl(1R)-1-phenyl-1,2,3,4-tetrahydroisoquinoline-2-carboxylate methanesulfonate]
[1]
  Weight Change (%): <25%

## (−)-(3R)-quinuclidin-3-yl(1R)-1-phenyl-1,2,3,4-tetrahydroisoquinoline-2-carboxylate (+)-camphor-10-sulfonate [Example 10]
[1]
  Weight Change (%): <2%
[2]
  Change from Impurity Amt. before Storage (%), Condition 3: 0.0%
  Change from Impurity Amt. before Storage (%), Condition 2: 0.0%
  Change from Impurity Amt. before Storage (%), Condition 1: 0.0%
  Impurities before Storage (%): 0.9%
Muscarinic M3 receptors; read-out: Ki
  Ki: 0.65 ± 0.12 nM
Muscarinic M3 receptors
  IC50: 2.6 ± 0.42 ng/mL

## (−)-(3R)-quinuclidin-3-yl(1R)-1-phenyl-1,2,3,4-tetrahydroisoquinoline-2-carboxylate (−)-L-phenylalaninate [Example 4]
[1]
  Weight Change (%): <2%
[2]
  Change from Impurity Amt. before Storage (%), Condition 3: −0.3%
  Change from Impurity Amt. before Storage (%), Condition 2: −0.3%
  Change from Impurity Amt. before Storage (%), Condition 1: 50.8%
  Impurities before Storage (%): 1.9%
[2]; Condition 1 of Test Example 2 (stability test to heat)
  Increase of impurities under heat: increase of impurities
Muscarinic M3 receptors; read-out: Ki
  Ki: 0.66 ± 0.046 nM
Muscarinic M3 receptors
  IC50: 2.5 ± 0.044 ng/mL
[3]
  ID50 (dose required for 50% inhibition of bladder contraction): 0.090 mg/kg

## (−)-(3R)-quinuclidin-3-yl(1R)-1-phenyl-1,2,3,4-tetrahydroisoquinoline-2-carboxylate methyl phosphate [Example 14]
[1]
  Weight Change (%): <11%

## (−)-(3R)-quinuclidin-3-yl(1R)-1-phenyl-1,2,3,4-tetrahydroisoquinoline-2-carboxylate naphthalene-2-sulfonate [Example 8]
[1]
  Weight Change (%): <4%
[2]
  Change from Impurity Amt. before Storage (%), Condition 3: 2.6%
  Change from Impurity Amt. before Storage (%), Condition 2: 0.2%
  Change from Impurity Amt. before Storage (%), Condition 1: 1.3%
  Impurities before Storage (%): 2.0%
Muscarinic M3 receptors; read-out: Ki
  Ki: 0.55 ± 0.12 nM
Muscarinic M3 receptors
  IC50: 2.3 ± 0.87 ng/mL
[3]
  ID50 (dose required for 50% inhibition of bladder contraction): 0.057 mg/kg

## (−)-(3R)-quinuclidin-3-yl(1R)-1-phenyl-1,2,3,4-tetrahydroisoquinoline-2-carboxylate sebacate [Example 9]
[1]
  Weight Change (%): <1%
[2]
  Change from Impurity Amt. before Storage (%), Condition 3: −0.8%
  Change from Impurity Amt. before Storage (%), Condition 2: 0.2%
  Change from Impurity Amt. before Storage (%), Condition 1: −0.3%
  Impurities before Storage (%): 3.7%
Muscarinic M3 receptors; read-out: Ki
  Ki: 0.56 ± 0.048 nM
Muscarinic M3 receptors
  IC50: 2.2 ± 0.33 ng/mL
